Measured values from ChEMBL document CHEMBL5614413, “Design, synthesis and biological evaluation of amphiphilic benzopyran derivatives as potent antibacterial agents against multidrug-resistant bacteria” (Eur J Med Chem, 2024).
≈ marks a conversion by molar mass, not a printed value. Calls of active or inactive are those of the source. The rule behind the calls is not given here.

Experiments:
[1] = test system: Staphylococcus aureus; test: (§1) Antibacterial activity against methicillin-resistant Staphylococcus aureus ATCC 43300 infected in sepsis mouse model assessed as reduction in number of surviving bacterial colonies in kidney at 5 mg/kg pre-infected with bacteria for 1 hrs followed by continuous compound administration at 12 hrs intervals for 2 days relative to control; assay type: functional; conditions: time 2 day
[2] = test system: Staphylococcus aureus; test: Disruption of preformed biofilm in methicillin-resistant Staphylococcus aureus ATCC 43300 assessed as eradication of biofilm at 8 microg/ml by crystal violet staining based analysis relative to control; assay type: functional; conditions: dose 8 µg/ml
[3] = test system: Staphylococcus aureus; test: Induction of ROS production in methicillin-resistant Staphylococcus aureus ATCC 43300 assessed as fold increase in ROS level at 32 microg/ml by DCFH-DA staining based analysis; conditions: dose 32 µg/ml
[4] = Hemolytic activity in sheep RBC; assay type: toxicity, cell-based, Ovis aries, Erythrocyte; conditions: sheep red blood cells (erythrocytes)
[5] = test system: Staphylococcus aureus; test: Bactericidal activity against methicillin-resistant Staphylococcus aureus ATCC 43300 in presence of 50% human serum by Mueller Hinton broth based assay; assay type: functional
[6] = test system: Cell membrane; test: Disruption of cell membrane integrity in methicillin-resistant Staphylococcus aureus ATCC 43300 assessed as appearance of red fluorescence by DAPI/PI staning based microscopic analysis; assay type: cell membranes
[7] = test system: Staphylococcus aureus; test: Disruption of preformed biofilm in methicillin-resistant Staphylococcus aureus ATCC 43300 assessed as eradication of biofilm by crystal violet staining method; assay type: functional, organism-based; conditions: dose 2-64 µg/ml
[8] = test system: Staphylococcus aureus; test: Inhibition of biofilm formation in methicillin-resistant Staphylococcus aureus ATCC 43300 at 2 microg/ml relative to control; assay type: functional
[9] = test system: Escherichia coli; test: Antibacterial activity against penicillin-susceptible Escherichia coli ATCC 25922; assay type: functional
[10] = test system: Staphylococcus aureus; test: (§2) Antibacterial activity against methicillin-resistant Staphylococcus aureus ATCC 43300 infected in sepsis mouse model assessed as decrease in IL-6 level in blood at 5 to 10 mg/kg pre-infected with bacteria for 1 hrs followed by continuous compound administration at 12 hrs intervals for 2 days; assay type: functional, organism-based; conditions: dose 5-10 mg/kg, time 2.0 day
[11] = test system: Staphylococcus aureus; test: Antibacterial activity against erythromycin-susceptible Staphylococcus aureus ATCC 25923; assay type: functional
[12] = test system: Staphylococcus aureus; test: Bactericidal activity against methicillin-resistant Staphylococcus aureus ATCC 43300 by Mueller Hinton broth based assay; assay type: functional; conditions: time <= 6 hrs
[13] = test system: Staphylococcus aureus; test: Antibacterial activity against penicillin-resistant Staphylococcus aureus ATCC 31007; assay type: functional
[14] = test system: Staphylococcus aureus; test: Bactericidal activity against methicillin-resistant Staphylococcus aureus ATCC 43300 assessed as bacterial killing at 16 microg/ml measured after 8 hrs by time-kill kinetics analysis relative to control; assay type: functional; conditions: dose 16 µg/ml
[15] = test system: Staphylococcus aureus; test: as §1, with “10” for “5”; assay type: functional; conditions: time 2 day
[16] = test system: Cell membrane; test: Disruption of cell membrane in methicilin-resistant Staphylococcus aureus ATCC 43300 assessed as appearance of collapsed cell membrane by scanning electron microscopic analysis; assay type: cell membranes
[17] = test system: Staphylococcus aureus; test: as §2, with “reduction” for “decrease”, “pathological damages” for “IL-6 level”, “liver” for “blood”, “days by H and E staining based analysis” for “days”; assay type: functional, organism-based; conditions: dose 5-10 mg/kg, time 2.0 day
[18] = test system: Cell membrane; test: Disruption of cell membrane in methicilin-resistant Staphylococcus aureus ATCC 43300 assessed as appearance of wrinkled cell membrane by scanning electron microscopic analysis; assay type: cell membranes
[19] = test system: Acinetobacter baumannii; test: Antibacterial activity against Acinetobacter baumannii ATCC 19606; assay type: functional
[20] = test system: Staphylococcus aureus; test: as §1, with “in” for “in number of surviving”, “load” for “colonies”, “(reference value: 6.75 log10CFU/g)” for “relative to control”; assay type: functional; conditions: time 2 day
[21] = test system: Staphylococcus aureus; test: Bactericidal activity against methicillin-resistant Staphylococcus aureus ATCC 43300 assessed as reduction in bacterial growth; assay type: functional, organism-based
[22] = test system: Staphylococcus aureus; test: Bactericidal activity against methicillin-resistant Staphylococcus aureus ATCC 43300 in presence of 50% human plasma by Mueller Hinton broth based assay; assay type: functional
[23] = test system: Cell membrane; test: Disruption of cell membrane in methicillin-resistant Staphylococcus aureus ATCC 43300 assessed as appearance of broken surface by scanning electron microscopic analysis; assay type: cell membranes
[24] = test system: Staphylococcus aureus; test: Antibacterial activity against methicillin-resistant Staphylococcus aureus ATCC 43300 infected in sepsis mouse model assessed as decrease in TNF-alpha level in blood at 5 to 10 mg/kg pre-infected with bacteria for 1 hrs followed by continuous compound administration at 12 hrs intervals for 2 days; assay type: functional, organism-based; conditions: dose 5-10 mg/kg, time 2.0 day
[25] = test system: Staphylococcus aureus; test: as §2, with “reduction” for “decrease”, “pathological damages” for “IL-6 level”, “spleen” for “blood”, “days by H and E staining based analysis” for “days”; assay type: functional, organism-based; conditions: dose 5-10 mg/kg, time 2.0 day
[26] = test system: Staphylococcus aureus; test: as §2, with “reduction” for “decrease”, “pathological damages” for “IL-6 level”, “kidney” for “blood”, “days by H and E staining based analysis” for “days”; assay type: functional, organism-based; conditions: dose 5-10 mg/kg, time 2.0 day
[27] = test system: Staphylococcus aureus; test: Disruption of preformed biofilm in methicillin-resistant Staphylococcus aureus ATCC 43300 assessed as eradication of biofilm at 64 microg/ml by crystal violet staining based analysis relative to control; assay type: functional; conditions: dose 64 µg/ml
[28] = test system: Klebsiella pneumoniae; test: Antibacterial activity against Klebsiella pneumoniae ATCC 10031; assay type: functional
[29] = test system: Staphylococcus aureus; test: Selectivity ratio of MBC for bactericidal activity against methicillin-resistant Staphylococcus aureus ATCC 43300 in presence of 50% human blood to MBC for bactericidal activity against methicillin-resistant Staphylococcus aureus ATCC 43300; assay type: functional

With `CCCCN(CCCC)CCCNCCCOc1c(C(C)=O)ccc2c1C=CC(C)(CCC=C(C)C)O2` (centres undefined) the Activity [1] was 99.2%, the Activity [2] was 26.69% and the “fold change (FC)” value [3] was 5. For the same compound, the HC50 [4] was 131 µg/mL, the MBC [5] was 16 µg/mL and the Activity [6] was “Active”. The Activity [7] was “Dose-Dependent Effect”, the inhibition at 2 µg/mL [8] was 8.46% and the MIC [9] was 4 µg/mL (≈ 7.8 µM). For the same compound, the Activity [10] was “Active”, the MIC [11] was 2 µg/mL (≈ 3.9 µM) and the MBC [12] was 8 µg/mL (≈ 15.6 µM). It also gave an MIC [13] of 4 µg/mL (≈ 7.8 µM), an Activity [14] of 100% and an Activity [15] of 99.9%. For the same compound, the Activity [16] was “Active”, the Activity [17] was “Active” and the Activity [18] was “Active”. The MIC [19] was 2 µg/mL (≈ 3.9 µM), the Activity [20] was 2.09 log10CFU/g and the Activity [21] was “Dose-Dependent Effect”. The MBC [22] was 16 µg/mL, the Activity [23] was “Active” and the Activity [24] was “Active”. For the same compound, the Activity [25] was “Active”, the Activity [26] was “Active” and the Activity [27] was over 40%. For the same compound, the MIC [28] was 4 µg/mL (≈ 7.8 µM) and the selectivity ratio [29] was 2.
